# According to ChEMBL document CHEMBL1201862, “PubChem BioAssay data set” (2004):
# Active and inactive are the calls of the source.
# Tests used:
# [1] = target: T1, RNA-binding protein pos-1 (Caenorhabditis elegans, UniProt G5EF15); experiment: inhibitors of POS-1/mex-3 RNA binding, dose response, biochemical, fluorescence polarization (AID 1964);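 further: purified POS-1 fused to maltose binding protein made in E. coli; potency of compounds blocking POS-1 binding to fluorescent RNA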
# T1 sequence (G5EF15 whole entry): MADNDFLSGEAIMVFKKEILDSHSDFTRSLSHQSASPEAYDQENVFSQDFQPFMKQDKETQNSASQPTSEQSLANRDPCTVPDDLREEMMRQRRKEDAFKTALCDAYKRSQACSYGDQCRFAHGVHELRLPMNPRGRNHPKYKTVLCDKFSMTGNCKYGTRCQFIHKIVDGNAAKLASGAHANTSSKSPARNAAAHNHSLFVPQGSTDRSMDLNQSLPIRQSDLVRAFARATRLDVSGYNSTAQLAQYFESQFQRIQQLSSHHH
# [2] = target: T2, Zinc finger protein mex-5 (Caenorhabditis elegans, UniProt Q9XUB2); experiment: MEX-5/TCR-2 RNA interaction inhibitors, dose response, biochemical, C. elegans, fluorescence polarization (AID 1960)
# T2 sequence (Q9XUB2 whole entry): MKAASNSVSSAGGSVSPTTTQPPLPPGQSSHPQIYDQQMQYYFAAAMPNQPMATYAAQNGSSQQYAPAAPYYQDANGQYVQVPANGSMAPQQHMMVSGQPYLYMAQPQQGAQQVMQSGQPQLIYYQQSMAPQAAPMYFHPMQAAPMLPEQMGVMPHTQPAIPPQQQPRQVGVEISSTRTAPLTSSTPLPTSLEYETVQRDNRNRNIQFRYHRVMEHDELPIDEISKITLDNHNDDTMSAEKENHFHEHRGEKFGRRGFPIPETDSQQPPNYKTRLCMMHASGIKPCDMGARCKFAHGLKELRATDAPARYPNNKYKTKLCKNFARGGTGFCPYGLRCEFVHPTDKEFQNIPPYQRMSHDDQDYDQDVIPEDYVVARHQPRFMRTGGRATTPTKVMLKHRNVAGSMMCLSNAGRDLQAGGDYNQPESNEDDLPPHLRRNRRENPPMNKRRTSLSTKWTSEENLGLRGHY
# [3] = target: T3, Ubiquitin-conjugating enzyme E2 N (Homo sapiens, UniProt P61088); type: functional;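 further: Dose-response confirmation in a TR-FRET assay detecting UBC13-driven polyubiquitin chain formation, inhibition measured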
# T3 sequence (P61088 whole entry): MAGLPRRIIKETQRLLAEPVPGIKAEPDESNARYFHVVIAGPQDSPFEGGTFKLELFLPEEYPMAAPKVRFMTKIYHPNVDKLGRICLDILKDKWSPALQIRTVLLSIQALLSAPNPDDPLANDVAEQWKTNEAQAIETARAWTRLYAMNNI
# Caspase-3 = target: T4, Caspase-3 (Homo sapiens, UniProt P42574); type: functional;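 further: Dose-response selectivity test against caspase-3 for candidate inhibitors of sentrin-specific proteases (SENPs)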
# T4 sequence (P42574 whole entry): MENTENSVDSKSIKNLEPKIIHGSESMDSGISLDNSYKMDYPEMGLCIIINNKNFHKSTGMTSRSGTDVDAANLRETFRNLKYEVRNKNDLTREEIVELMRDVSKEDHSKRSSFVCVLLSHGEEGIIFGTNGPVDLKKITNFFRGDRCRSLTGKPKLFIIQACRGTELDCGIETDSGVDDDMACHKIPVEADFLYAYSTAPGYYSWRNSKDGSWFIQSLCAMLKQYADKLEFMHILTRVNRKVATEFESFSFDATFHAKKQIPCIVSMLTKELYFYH
# [4] = target: T5, Sentrin-specific protease 6 (Homo sapiens, UniProt Q9GZR1); type: functional;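 further: Luminescence-based dose-response confirmatory assay of SENP6 inhibition, following up an ultra-high-throughput screen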
# T5 sequence (Q9GZR1 whole entry): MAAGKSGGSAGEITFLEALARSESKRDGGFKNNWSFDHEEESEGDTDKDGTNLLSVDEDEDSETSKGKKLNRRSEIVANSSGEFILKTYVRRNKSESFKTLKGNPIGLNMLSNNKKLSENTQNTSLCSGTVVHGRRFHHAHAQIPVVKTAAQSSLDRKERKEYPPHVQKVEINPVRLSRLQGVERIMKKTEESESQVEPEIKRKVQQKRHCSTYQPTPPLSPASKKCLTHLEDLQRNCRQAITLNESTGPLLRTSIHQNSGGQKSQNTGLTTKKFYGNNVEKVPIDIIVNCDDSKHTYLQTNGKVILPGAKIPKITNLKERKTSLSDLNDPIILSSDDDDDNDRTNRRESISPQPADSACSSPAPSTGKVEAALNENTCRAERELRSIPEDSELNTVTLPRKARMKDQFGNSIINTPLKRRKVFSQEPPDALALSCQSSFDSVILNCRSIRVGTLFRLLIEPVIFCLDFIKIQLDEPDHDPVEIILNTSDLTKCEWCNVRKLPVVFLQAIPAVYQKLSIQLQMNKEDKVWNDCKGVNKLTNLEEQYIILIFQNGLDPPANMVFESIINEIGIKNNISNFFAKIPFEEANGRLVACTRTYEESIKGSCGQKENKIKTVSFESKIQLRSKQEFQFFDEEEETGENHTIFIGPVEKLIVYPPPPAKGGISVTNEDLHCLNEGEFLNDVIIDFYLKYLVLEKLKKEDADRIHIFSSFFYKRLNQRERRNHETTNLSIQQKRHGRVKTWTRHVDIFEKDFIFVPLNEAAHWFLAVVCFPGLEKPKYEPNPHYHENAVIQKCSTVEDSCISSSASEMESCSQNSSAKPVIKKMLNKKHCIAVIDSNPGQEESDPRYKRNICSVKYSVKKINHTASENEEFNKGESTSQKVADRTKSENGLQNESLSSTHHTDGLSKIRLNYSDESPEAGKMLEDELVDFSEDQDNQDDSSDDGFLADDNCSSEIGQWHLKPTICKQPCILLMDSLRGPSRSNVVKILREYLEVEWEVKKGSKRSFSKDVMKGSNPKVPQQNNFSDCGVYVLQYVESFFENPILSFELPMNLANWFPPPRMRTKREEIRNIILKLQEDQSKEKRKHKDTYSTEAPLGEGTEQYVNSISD
# [5] = target: T6, Sentrin-specific protease 8 (Homo sapiens, UniProt Q96LD8); type: functional;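 further: luminescence read-out of SENP8 inhibition, dose-response confirmation following an ultra-high-throughput screen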
# T6 sequence (Q96LD8 whole entry): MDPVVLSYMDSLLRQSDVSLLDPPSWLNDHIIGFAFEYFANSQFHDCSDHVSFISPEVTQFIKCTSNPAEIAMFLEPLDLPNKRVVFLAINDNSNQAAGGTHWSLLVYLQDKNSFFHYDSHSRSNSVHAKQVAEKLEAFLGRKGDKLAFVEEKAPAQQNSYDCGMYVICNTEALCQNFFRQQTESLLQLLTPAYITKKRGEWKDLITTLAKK
# [6] = target: T7, Sentrin-specific protease 7 (Homo sapiens, UniProt Q9BQF6); type: functional;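 further: Luminescence-based dose-response confirmation of ultra-high-throughput screening hits, measuring inhibition of SENP7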
# T7 sequence (Q9BQF6 whole entry): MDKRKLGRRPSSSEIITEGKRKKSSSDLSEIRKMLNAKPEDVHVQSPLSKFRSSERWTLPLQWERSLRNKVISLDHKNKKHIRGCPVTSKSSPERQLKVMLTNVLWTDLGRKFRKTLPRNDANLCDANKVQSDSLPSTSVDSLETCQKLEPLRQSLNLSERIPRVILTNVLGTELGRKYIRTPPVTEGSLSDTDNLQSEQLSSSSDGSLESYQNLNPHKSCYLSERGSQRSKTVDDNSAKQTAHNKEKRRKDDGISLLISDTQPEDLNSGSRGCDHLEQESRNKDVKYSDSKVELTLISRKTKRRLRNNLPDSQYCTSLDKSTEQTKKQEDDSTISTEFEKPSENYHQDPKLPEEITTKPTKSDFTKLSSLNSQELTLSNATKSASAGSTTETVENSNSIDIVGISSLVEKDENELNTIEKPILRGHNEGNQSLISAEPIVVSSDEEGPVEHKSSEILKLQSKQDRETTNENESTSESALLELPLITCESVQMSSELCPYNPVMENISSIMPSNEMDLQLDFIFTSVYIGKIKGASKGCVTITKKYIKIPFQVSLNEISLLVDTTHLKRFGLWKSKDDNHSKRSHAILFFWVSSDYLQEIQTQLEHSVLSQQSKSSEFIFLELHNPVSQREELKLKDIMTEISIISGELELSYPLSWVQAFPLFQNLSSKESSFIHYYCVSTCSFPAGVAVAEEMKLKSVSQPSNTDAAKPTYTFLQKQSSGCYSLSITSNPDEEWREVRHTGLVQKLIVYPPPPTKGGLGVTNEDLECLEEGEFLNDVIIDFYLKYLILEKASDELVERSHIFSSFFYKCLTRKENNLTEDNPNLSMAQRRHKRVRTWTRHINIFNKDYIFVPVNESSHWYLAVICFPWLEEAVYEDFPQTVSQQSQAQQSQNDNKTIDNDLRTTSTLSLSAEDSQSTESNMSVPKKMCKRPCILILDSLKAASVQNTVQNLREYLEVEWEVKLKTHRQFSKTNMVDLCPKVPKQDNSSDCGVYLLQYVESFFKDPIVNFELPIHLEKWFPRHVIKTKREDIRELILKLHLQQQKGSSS
# [7] = HEp-2 cell cytotoxicity, dose response, cytotoxicity control for RSV inhibitor project, HTS (AID 2410); type: functional; conditions: human respiratory syncytial virus
# [8] = target: T8, Polyadenylate-binding protein 1 (Homo sapiens, UniProt P11940); experiment: PABP1 MLLE–PAM2 binding inhibitor potency, dose response, biochemical, fluorescence polarization, FITC-PAM2 peptide (AID 602259); type: functional; conditions: read-out: IC50_Mean
# [9] = target: T8, Polyadenylate-binding protein 1; experiment: PABP1 MLLE–PAM2 interaction inhibitors, dose response, miRNA deadenylation inhibitor project, biochemical, fluorescence polarization, Cy5-PAM2 peptide, secondary (AID 602260); type: functional; conditions: read-out: IC50_Mean
# [10] = microbe, parasite or virus in culture; type: functional; conditions: Mycobacterium tuberculosis
# Vero = experiment: cells; type: functional; conditions: Chlorocebus sabaeus
# Caspase-6 = target: T9, Caspase-6 (Homo sapiens, UniProt P55212); experiment: human caspase-6 inhibitors, dose response, biochemical, VEID-R110 fluorescence, cherry-pick (AID 720632)
# T9 sequence (P55212 whole entry): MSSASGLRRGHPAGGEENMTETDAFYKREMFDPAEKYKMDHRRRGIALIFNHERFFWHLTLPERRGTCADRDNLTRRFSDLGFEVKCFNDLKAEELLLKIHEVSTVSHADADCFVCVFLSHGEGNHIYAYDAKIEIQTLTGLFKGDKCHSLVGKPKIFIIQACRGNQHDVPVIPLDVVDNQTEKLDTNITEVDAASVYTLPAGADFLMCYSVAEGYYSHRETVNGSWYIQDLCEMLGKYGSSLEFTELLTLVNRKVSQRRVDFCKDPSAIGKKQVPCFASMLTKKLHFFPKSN
# cells [11] = type: functional, cell-based
# [12] = cytotoxicity toward NIH3T3 fibroblasts, dose response, counter-screen, cell-based, ATP luminescence, mouse fibroblasts (AID 2010); type: functional;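 further: cells exposed to compound for about 90 hours before reading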
# cells [13] = type: functional, cell-based; remark: listed apart in the source
# INS1 = experiment: beta cell apoptosis inhibitors, cytokine rescue, dose response, luminescence, retest (AID 449756); type: functional, cell-based; conditions: Rattus norvegicus;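 further: cell death triggered by IL-1 beta plus TNF-alpha plus IFN-gamma mixture; protective hits raise ATP signal compared with cytokine alone wells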
# [14] = inhibitors of intracellular T. cruzi replication, confirmation, NIH3T3 host cells, beta-gal luminescence (AID 2044); type: functional, cell-based;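 further: intracellular parasites grown in NIH/3T3 mouse fibroblasts as host cells; luminescent beta-galactosidase reporter signal from transgenic T. cruzi replicating inside host cells; inhibitors lower the luminescence signal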
# T8 sequence (P11940 whole entry): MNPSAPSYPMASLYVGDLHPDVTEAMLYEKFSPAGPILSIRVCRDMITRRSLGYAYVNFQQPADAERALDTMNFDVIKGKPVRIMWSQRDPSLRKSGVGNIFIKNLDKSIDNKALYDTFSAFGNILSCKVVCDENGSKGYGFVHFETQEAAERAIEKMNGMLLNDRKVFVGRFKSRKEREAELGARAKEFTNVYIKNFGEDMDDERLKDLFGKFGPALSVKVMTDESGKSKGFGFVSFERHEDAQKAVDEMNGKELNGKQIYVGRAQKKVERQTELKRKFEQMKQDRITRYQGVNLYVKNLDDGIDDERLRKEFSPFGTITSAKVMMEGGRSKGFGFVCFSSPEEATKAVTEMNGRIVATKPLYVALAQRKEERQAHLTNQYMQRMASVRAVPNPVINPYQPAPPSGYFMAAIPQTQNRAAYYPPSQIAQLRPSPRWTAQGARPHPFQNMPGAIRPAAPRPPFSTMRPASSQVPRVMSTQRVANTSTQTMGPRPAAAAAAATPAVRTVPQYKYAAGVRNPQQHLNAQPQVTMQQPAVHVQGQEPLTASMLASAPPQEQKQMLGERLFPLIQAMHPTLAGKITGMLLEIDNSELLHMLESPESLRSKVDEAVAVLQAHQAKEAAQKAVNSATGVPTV
smiles,measurement,setting,value
CCN(CC)c1ccc(N/C=C2/C(=O)NC(=O)N(c3ccc(OC)cc3)C2=O)cc1,EC50,[1],9.58 µM (inconclusive)
same,EC50,[2],6.36 µM (active)
NS(=O)(=O)c1ccc(CCNC(=O)C2CCN(c3ncnc4c3nc3n4CCCCC3)CC2)cc1,IC50,[3],> 20 µM (inactive)
O=C1NC(=O)N(CCc2ccccc2)C(=O)/C1=C/NCCCn1ccnc1,EC50,[1],> 300 µM (not active)
same,EC50,[2],> 300 µM (not active)
Fc1cccc2sc(N3CCCCC3)nc12,IC50,Caspase-3,10.7 µM (active)
same,IC50,[4],30.3 µM (active)
same,IC50,[5],60.5 µM (active)
same,IC50,[6],7.98 µM (active)
NC(=S)N=Nc1c(O)[nH]c2cc(F)c(F)cc12,IC50,[3],> 20 µM (inactive)
same,CC50,[7],40 µM (active)
same,IC50,[8],> 66 µM (inactive)
same,IC50,[9],> 66 µM (inactive)
Oc1ccc(C[C@H]2CNCCN2CCCCC2CCCCC2)cc1,IC50,[3],> 20 µM (inactive)
same,CC50,[10],13.2 µM (active)
COc1nccnc1NS(=O)(=O)c1ccc(NC(=S)NC(=O)c2ccc(F)cc2)cc1,IC50,[8],> 66 µM (inactive)
same,IC50,[9],> 66 µM (inactive)
CSC1=NC(/C=C/c2ccc(Cl)cc2Cl)=CC(C)(C)N1,CC50,Vero,17.4 µM (active)
CCSc1nc(=S)n(-c2ccccc2)c(C)c1C(C)=O,IC50,[8],> 66 µM (inactive)
same,IC50,[9],> 66 µM (inactive)
C=CCOc1cccc(C2C(C(=O)c3ccco3)=C(O)C(=O)N2Cc2ccco2)c1 (stereo not drawn),EC50,[1],> 300 µM (not active)
same,EC50,[2],> 300 µM (not active)
CCN(CC)c1ccc(C(=O)OCC(=O)Nc2sccc2C#N)cc1,IC50,Caspase-3,37.3 µM (active)
same,IC50,[4],11.5 µM (active)
same,IC50,[5],89.1 µM (active)
same,IC50,[6],11.6 µM (active)
O=C(Nc1ccccc1[N+](=O)[O-])c1cc(S(=O)(=O)N2CCOCC2)cs1,CC50,Vero,18.3 µM (active)
COc1ccc(-c2nc3cnccn3c2NC(C)(C)CC(C)(C)C)cc1O,CC50,Vero,> 25 µM (active)
O=C(CCCCCn1c(=O)[nH]c2ccccc2c1=O)NCCCN1CCN(c2ccccc2F)CC1,IC50,[3],> 20 µM (inactive)
O=C(NCc1ccccc1Cl)c1ccc2[nH]cnc2c1,AC50,Caspase-6,28.1 µM (active)
CC1(C)Cc2c(sc(NC(=O)c3ccc4c(c3)OCCO4)c2C(N)=O)C(C)(C)N1,IC50,[3],> 20 µM (inactive)
O=C(O)c1ccccc1NS(=O)(=O)c1ccc(NN=Cc2cccc(Cl)c2)c([N+](=O)[O-])c1,AC50,Caspase-6,24.5 µM (active)
COc1ccc(CNC(=O)CN(Cc2ccc(Cl)cc2)C(=O)c2csnn2)cc1,IC50,[8],> 66 µM (inactive)
same,IC50,[9],> 66 µM (inactive)
O=C(CSC1c2ccccc2-c2ccccc21)N/N=C/c1ccccc1O,EC50,cells [11],> 350 µM (not active)
same,EC50,[12],9.08 µM (active)
same,EC50,cells [13],12.9 µM (active)
same,AC50,INS1,2.03 µM (active)
same,EC50,[14],2.55 µM (active)
same,IC50,[8],> 66 µM (inactive)
same,IC50,[9],> 66 µM (inactive)
COc1ccc(/C(O)=C/C2=NCC3c4ccccc4CCN3C2=O)cc1 (stereo not drawn),EC50,[1],> 300 µM (not active)
same,EC50,[2],> 300 µM (not active)
